Laboratory results taken from patent US20210094954A1, “PREPARATION METHODS AND APPLICATIONS OF 3,5-DISUBSTITUTED METHYLPYRAZOLO[1,5-A]PYRIMIDINE-7-HYDROXYLIC SALTS” (priority 2019, published 2021).
Read-outs that look alike come from different tables or passages of the source.

Key:
Assay type in all cases: cell-based
Bacillus cereus 2 = assay: microbe, parasite or virus in culture; details: Bacillus cereus, 2; 37° C., 24 hours; read-out: MIC values of in vitro antibacterial test results
Bacillus subtilis 168 = assay: microbe, parasite or virus in culture; details: Bacillus subtilis, 168; 37° C., 24 hours; read-out: MIC values of in vitro antibacterial test results
[1] = test system: Enterococcus faecalis 29212; assay: microbe, parasite or virus in culture; details: Enterococcus faecalis, 29212; 37° C., 24 hours; read-out: MIC values of in vitro antibacterial test results
[2] = test system: Enterococcus faecalis F2518(VRE); assay: microbe, parasite or virus in culture; details: Enterococcus faecalis, VRE, 24 h, read-out: MIC values of in vitro antibacterial test results
[3] = test system: Staphylococcus aureus 29231; assay: microbe, parasite or virus in culture; details: Staphylococcus aureus, 29231; 37° C., 24 hours; read-out: MIC values of in vitro antibacterial test results
[4] = test system: Staphylococcus aureus 43300(MRSA); assay: microbe, parasite or virus in culture; details: Staphylococcus aureus, MRSA, 24 h, read-out: MIC values of in vitro antibacterial test results
[5] = test system: Staphylococcus aureus 703(MRSA); assay: microbe, parasite or virus in culture; details: Staphylococcus aureus, MRSA, 24 h, read-out: MIC values of in vitro antibacterial test results
[6] = test system: Streptococcus pneumoniae 6303 (PRSP); assay: microbe, parasite or virus in culture; details: Streptococcus pneumoniae, PRSP, 24 h, read-out: MIC values of in vitro antibacterial test results
[7] = test system: Streptococcus pneumoniae M2; assay: microbe, parasite or virus in culture; details: Streptococcus pneumoniae, M2; 37° C., 24 hours; read-out: MIC values of in vitro antibacterial test results
[8] = test system: Streptococcus agalactia B group; assay: microbe, parasite or virus in culture; details: Streptococcus; 37° C., 24 hours; read-out: MIC values of in vitro antibacterial test results
[9] = test system: Streptococcus pneumoniae 10351; assay: microbe, parasite or virus in culture; details: Streptococcus pneumoniae, 10351; 37° C., 24 hours; read-out: MIC values of in vitro antibacterial test results
[10] = test system: Bacillus anthracis Bacillus 1; assay: microbe, parasite or virus in culture; details: Bacillus anthracis, 24 h, read-out: MIC values of in vitro antibacterial test results
Diphtheria bacilli = assay: organism not typed; details: 37° C., 24 hours; read-out: MIC values of in vitro antibacterial test results
Clostridium perfringens = assay: microbe, parasite or virus in culture; details: Clostridium perfringens, 24 h, read-out: MIC values of in vitro antibacterial test results
Oral Candida = assay: microbe, parasite or virus in culture; details: Candida
Peel fungus = assay: organism not typed; details: 37° C., 24 hours; read-out: MIC values of in vitro antibacterial test results
[11] = test system: F2518(VRE), Staphylococcus aureus resistant strain 43300(MRSA), 703 (MRSA), pneumococcal resistance bacteria 6303(PRSP); assay: microbe, parasite or virus in culture; details: read-out: MIC values (μM)
[12] = 37° C., 24 hours, read-out: MIC values of in vitro antibacterial test results

SMILES | MIC (Bacillus cereus 2) [µg/mL] | MIC (Bacillus subtilis 168) [µg/mL] | MIC [1] [µg/mL] | MIC [2] [µg/mL] | MIC [3] [µg/mL] | MIC [4] [µg/mL] | MIC [5] [µg/mL] | MIC [6] [µg/mL] | MIC [7] [µg/mL] | MIC [8] [µg/mL] | MIC [9] [µg/mL] | MIC [10] [µg/mL] | MIC (Diphtheria bacilli) [µg/mL] | MIC (Clostridium perfringens) [µg/mL] | MIC (Oral Candida; [12]) [µg/mL] | MIC (Peel fungus) [µg/mL] | MIC [11] [µg/mL] | MIC (Oral Candida; read-out: MIC values (μM)) [µg/mL]
Cc1nn2c([O-])cc(-c3ccc(F)cc3F)nc2c1-c1ccc(F)cc1F.[Na+] [Compound 12, Sodium 3,5-bis(2,4-difluorophenyl)-2-methylpyrazolo[1,5-α]pyrimidin-7-olate] | < 100 | > 150 | < 150 | < 150 | > 150 | < 150 | < 150 | > 150 | < 150 | > 150 | > 150 | > 150 | > 150 | > 150 | < 150 | < 150 | < 100 | –
CC(=O)Oc1ccc(-c2cc([O-])n3nc(C)c(-c4ccc(F)cc4F)c3n2)cc1.[Na+] [Compound 13, Sodium 5-(4-acetoxyphenyl)-3-(2,4-difluorophenyl)-2-methylpyrazolo[1,5-α]pyrimidin-7-olate] | < 150 | > 150 | < 150 | < 150 | > 150 | < 100 | < 150 | > 150 | < 100 | > 150 | > 150 | > 150 | > 150 | > 150 | < 100 | < 150 | < 100 | < 100
Cc1nn2c([O-])cc(-c3ccc(C(F)(F)F)nc3)nc2c1-c1ccc(F)cc1F.[Na+] [Compound 14, Sodium 3-(2,4-difluorophenyl)-2-methyl-5-(6-(trifluoromethyl)pyridin-3-yl)pyrazolo[1,5-α] pyrimidin-7-olate] | < 100 | < 100 | < 100 | < 150 | < 100 | < 150 | < 100 | < 100 | < 150 | > 150 | < 100 | > 150 | > 150 | > 150 | < 100 | > 150 | < 100 | < 100
Cc1nn2c([O-])cc(-c3ccc(C#N)nc3)nc2c1-c1ccc(F)cc1F.[Na+] [Compound 15, sodium 5-(6-cyanopyridin-3-yl)-3-(2,4-difluorophenyl)-2-methylpyrazolo[1,5-α]pyrimidin-7-olate] | < 100 | < 150 | < 100 | < 150 | < 100 | < 150 | < 100 | < 150 | < 100 | > 150 | < 100 | > 150 | > 150 | > 150 | < 150 | > 150 | < 100 | –
Cc1nn2c([O-])cc(-c3ccc([N+](=O)[O-])nc3)nc2c1-c1ccc(F)cc1F.[Na+] [Compound 16, sodium 3-(2,4-difluorophenyl)-2-methyl-5-(6-nitropyridin-3-yl)pyrazolo[1,5-α]pyrimidin-7-olate] | < 100 | < 150 | < 100 | < 150 | < 100 | < 150 | < 100 | < 100 | < 150 | > 150 | < 100 | > 150 | > 150 | > 150 | < 100 | > 150 | < 100 | < 100
COc1ccc(-c2cc([O-])n3nc(C)c(-c4ccc(F)cc4F)c3n2)cn1.[Na+] [Compound 17, sodium 3-(2,4-difluorophenyl)-5-(6-methoxypyridin-3-yl)-2-methylpyrazolo[1,5-α]pyrimidin-7-olate] | < 150 | > 150 | < 150 | < 150 | > 150 | < 100 | < 150 | > 150 | < 100 | > 150 | > 150 | > 150 | > 150 | > 150 | < 100 | < 150 | < 100 | < 100
Cc1nn2c([O-])cc(-c3ccc(N(C)C)nc3)nc2c1-c1ccc(F)cc1F.[Na+] [Compound 18, Sodium 3-(2,4-difluorophenyl)-5-(6-(dimethylamino)pyridin-3-yl)-2-methylpyrazolo[1,5-α]pyrimidin-7-olate] | < 100 | > 150 | < 150 | < 150 | > 150 | < 100 | < 150 | > 150 | < 100 | > 150 | > 150 | > 150 | > 150 | > 150 | > 150 | < 150 | < 100 | –
Cc1nn2c([O-])cc(-c3ccc([O-])nc3)nc2c1-c1ccc(F)cc1F.[Na+].[Na+] [Compound 19, Disodium 3-(2,4-difluorophenyl)-2-methyl-5-(6-hydroxypyridin-3-yl)pyrazolo[1,5-α]pyrimidin-7-olate] | < 100 | > 150 | < 150 | < 150 | > 150 | < 100 | < 150 | > 150 | < 100 | > 150 | > 150 | > 150 | > 150 | > 150 | > 150 | < 150 | < 100 | –
Cc1nn2c([O-])cc(-c3ccc(C#N)cc3)nc2c1-c1ccc(F)cc1F.[K+] [Compound 20, Potassium 5-(4-cyanophenyl)-3-(2,4-difluorophenyl)-2-methylpyrazolo[1,5-α]pyrimidin-7-olate] | < 100 | < 100 | < 100 | < 150 | < 100 | < 150 | < 100 | < 150 | < 100 | > 150 | < 100 | > 150 | < 150 | < 150 | < 150 | > 150 | < 100 | –
Cc1nn2c([O-])cc(-c3ccc(C(=O)[O-])nc3)nc2c1-c1ccc(F)cc1F.[Na+].[Na+] [Compound 21, Disodium 5-(3-(2,4-difluorophenyl)-2-methyl-7-hydroxypyrazolo[1,5-α]pyrimidin-5-yl)picolinate] | < 150 | > 150 | < 150 | < 150 | > 150 | < 100 | < 150 | > 150 | < 100 | > 150 | > 150 | > 150 | > 150 | > 150 | < 100 | < 150 | < 100 | < 100
Cc1nn2c([O-])cc(-c3ccc(C(F)(F)F)cc3)nc2c1-c1ccc(F)cc1F.[K+] [Compound 22, potassium 3-(2,4-difluorophenyl)-2-methyl-5-(4-(trifluoromethyl)phenyl)pyrazolo[1,5-α]pyrimidin-7-olate] | < 100 | < 100 | < 150 | < 150 | < 100 | < 100 | < 100 | < 150 | < 100 | < 150 | < 150 | > 150 | > 150 | > 150 | < 100 | < 150 | < 100 | < 100
